# Where no end group is shown, it is not given here.
# Columns and labels:
# [1] = system: CIA rats with latent tuberculosis infection
# [2] = system: CIA mice infected with chronic hepatitis B; assay: CIA mice infected with chronic hepatitis B (Example 8); assay type: in vivo, mouse
# In short: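 DBA/1 mice given rAAV8-1.3HBV (1×10^12 vg/mL) i.v.; 2 days later immunised intradermally with bovine CII/CFA (100 μg collagen), boosted i.p. at day 21 with CII/IFA. Randomised at paw score 1; drugs i.v. every other day for 27 days. Paw inflammation scores, serum viral and liver-function markers measured.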
# [3] = system: immune system of healthy rats; assay: Immune indicators of SD rats after one month of administration (Example 4); assay type: in vivo, rat; conditions: once a day for 4 weeks, end of administration
# Method: SD rats were used to investigate the effects of the SE-DR affinity peptides on the immune indicators of the rats after continuous administration for one month. […] At the end of administration, analysis was conducted on the serum anti-FNS007 antibodies, different types of serum immunoglobulins, the serum complement, the peripheral blood T lymphocyte and the serum cytokines.
# PBMC = PBMC stimulation test, IL-6 in supernatant by ELISA; assay type: cell-based, human; conditions: PBMC 1×10^6 cell/ml, peptide 10 μg/ml, 5 days of culture
# In short: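 Human PBMC isolated from blood by Ficoll density centrifugation, seeded at 1×10^6 cell/ml in 1640 complete medium with peptide at final 10 μg/ml. Cultured 5 days; IL-6 in supernatant measured by ELISA.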
# CIA rats = assay type: in vivo, rat
# From the text: Female Lewis rats were used to establish CIA model. Methods: The rats were immunized by intradermal injection with the emulsion prepared by bovine C II and IFA at the tail head. After 7 days, the rats were boosted once with the same method. Thereafter, the morphological changes of the four paws of the rats were examined every day. […] Another 8 female Lewis rats were not subjected to model establishment and set as the control group. PBS was administrated to both the model group and the control group. […] The inflammation scores of the four paws of the rats in each group were evaluated during the administration (once every other day), and the area under the curve (AUC) of the inflammation score was calculated during the administration. During drug discontinuation, the inflammation scores of the four paws of the rats in each group were continuously evaluated (once every other day), and the rats were sacrificed on day 22 after drug discontinuation. HE staining was performed on the ankle joint for tissue injury evaluation. The specific scoring criteria were as follows: 0=normal synovial tissue; 1=synovial hyperplasia and inflammatory cell infiltration; 2=pannus formation and cartilage erosion; 3=destruction of most of the cartilage with subchondral bone erosion; 4=loss of joint integrity, ankylosis.
sequence,measurement,setting,value
FKGEQAGAGE [APL2],Observation on the daily condition of rats,[1]; during administration,No abnormality
same,Tuberculosis recurrence rate,"[1]; peptides 0.2 mmol, adalimumab 1 mg/kg, 21 days",0%
same,Inflammation score and area under the time curve (AUC),"[1]; peptides 0.2 mmol, adalimumab 1 mg/kg, tail i.v. once every other day for 21 days",48.03 ± 31.91
same,Culture of MTB from lungs and spleens of rats at sacrifice,"[1]; sacrifice on day 22, peptides 0.2 mmol, adalimumab 1 mg/kg",Negative
same,ALT level,"[2]; at sacrifice, day 28",45.88 ± 19.74 U/L
same,Hepatitis B activation rate (Ratio of ALT > 100 U/L),"[2]; at sacrifice, day 28",0%
same,Observation on the daily condition of mice,[2]; during administration,No abnormality
same,Inflammation score and area under the time curve (AUC),"[2]; peptides 50 μmol, Abatacept 100 μg, tail i.v. once every other day for 27 days",89.86 ± 46.14
same,CD3%,[3],37.4 ± 10.52%
same,CD4%,[3],19.77 ± 6.05%
same,CD8%,[3],17.29 ± 7.09%
same,IFN-γ,[3],2.47 ± 0.36 pg/mL
same,IL-2,[3],3.69 ± 3.03 pg/mL
same,IL-4,[3],1.96 ± 1.26 pg/mL
same,TNF-α,[3],5.13 ± 1.83 pg/mL
same,IL-6 levels in the supernatant,PBMC,2.3 ng/mL
same,inflammation score during drug discontinuation compared with that at the time of drug discontinuation,CIA rats; 21 days of observation after stopping at day 21,could maintain the therapeutic effect
same,Pathological score during 21 days of drug discontinuation,"CIA rats; HE staining of ankle joint, score 0-4",1.93 ± 0.58
same,"AUC, during drug discontinuation (day 22-42)",CIA rats; inflammation score AUC after stopping administration at day 21,42.86 ± 31.21
same,Incidence of infection in rats,"CIA rats; rat, in vivo",0%
same,Observation on the daily state of rats,"CIA rats; rat, in vivo",No
